Assay results: publication PMC3024420 (PLoS ONE, 2011)
Entries after “also recorded” stand apart in the source; their conditions may differ. Where no end group is shown, it is not given here.

Assays:
[1] = 300 rpm, 37°C, Tricine-SDS gel; for stability in SP containing protease inhibitor (PI) cocktail: SP spiked with broad spectrum PI cocktail, 1–24 h; for time to complete degradation / time to partial degradation: three volumes peptide (1 mg/ml) with one volume whole SP, Coomassie blue
Experimental: (§1) All incubation sample tubes were pulsed briefly in a microcentrifuge, and immediately stored at −20°C. Samples were electrophoresed on mini-16% Tricine-SDS gels, and stained.

[2] = target: prostasin (Homo sapiens, UniProt Q16651)
Experimental: as §1
(§2) Digested peptide fragments from protease incubations underwent MALDI-TOF/TOF MS/MS analysis using the Model Ultraflex III mass spectrometer (Bruker Daltonics, Billerica, MA, USA) equipped with LIFT capability. Samples were desalted using C18 ZipTips (Millipore, Bedford, MA, USA) and were analyzed in positive reflector mode. External calibration was performed using a mass standards kit for proteomics analyzer (Applied Biosystems). Samples also underwent analysis via nano-LC ESI-TOF MS/MS using the maXis ESI-Q-TOF (Bruker Daltonics) mass spectrometer online with the Dionex model U3000 nanobore HPLC [28]. Data were analyzed with the Sprot database using the Bruker ProteinScape program version 2.1 and Mascot program version 2.2 with enzyme setting to semiTrypsin.

[3] = test system: trypsin
Experimental: as §1, §2

[4] = target: prostate-specific antigen (PSA) (Homo sapiens, UniProt P07288)
Experimental: as §1, §2

[5] = target: matriptase (Homo sapiens, UniProt Q9Y5Y6)
Experimental: as §1, §2

[6] = test system: TZM-bl cells; experiment: MTT metabolic assay; type: cell-based; conditions: cells treated for 24 h; peptides 35 µg/ml, SP 1%
Experimental: (§3) All treated cells were lysed using a Bright Glo luciferase system (Promega, Madison, WI, USA), and the ability to prevent HIV-1 infection was measured as a percent reduction in luciferase (relative light units or RLU) compared to the positive viral control (media and virus only). Metabolic activity of the cells was verified by a tetrazolium-based (MTT) assay according to manufacturer's instructions (R&D Systems, Minneapolis, MN, USA), while cytotoxicity was measured using the standard trypan blue dye exclusion assay.

[7] = test system: PM1 cells; conditions: 35 µg/ml with or without 1% SP; n = 3
Experimental: (§4) Cells were then washed, and resuspended in fresh media with sample treatments for 5–7 days. Supernatants were collected on alternate days, and cells in culture were resuspended in sample or media alone. To ensure cell viability, standard trypan blue dye exclusion assays were performed. To quantify viral inhibition, the amount of p24gag was measured in cell supernatants with an ELISA (PerkinElmer, Waltham, MA, USA).
(§5) The antiviral, metabolic, and cytotoxicity experiments were performed at least three times, and each of the assays were performed in triplicate or quadruplicate. For the TZM-bl antiviral assays the infected vehicle-only controls were averaged and set as 100% infection. For the PM1 and PBMC antiviral assays, p24 ELISA quantification established the infected vehicle-only control as 100% infection. […] Individual treatments were analyzed by either one-way ANOVA with Tukey's multiple comparisons post-test or two-tailed unpaired t-test.

[8] = test system: PBMCs; conditions: 35 µg/ml with or without 1% SP; n = 3
Experimental: as §4, §5

[9] = test system: TZM-bl cells; type: cell-based; conditions: 24 h of treatment; peptides 35 µg/ml, SP 1%
Experimental: as §3

[10] = SP spiked with a broad spectrum protease inhibitor (PI); conditions: human, 37°C, up to 24 h
[11] = test system: trypsin; experiment: trypsin diluted with sterile PBS; conditions: 37°C, up to 24 h
[12] = MALDI TOF/TOF MS/MS and nano-LC-MS/MS

Sequence of prostate-specific antigen (PSA) (P07288 25-261): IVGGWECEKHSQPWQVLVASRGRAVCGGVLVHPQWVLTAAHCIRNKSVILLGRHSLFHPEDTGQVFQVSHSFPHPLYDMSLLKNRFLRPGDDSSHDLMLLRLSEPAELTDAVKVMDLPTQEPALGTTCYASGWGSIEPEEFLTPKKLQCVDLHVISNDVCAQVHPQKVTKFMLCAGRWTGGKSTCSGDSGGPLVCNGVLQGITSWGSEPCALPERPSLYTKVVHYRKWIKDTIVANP
Sequence of matriptase (Q9Y5Y6 whole entry): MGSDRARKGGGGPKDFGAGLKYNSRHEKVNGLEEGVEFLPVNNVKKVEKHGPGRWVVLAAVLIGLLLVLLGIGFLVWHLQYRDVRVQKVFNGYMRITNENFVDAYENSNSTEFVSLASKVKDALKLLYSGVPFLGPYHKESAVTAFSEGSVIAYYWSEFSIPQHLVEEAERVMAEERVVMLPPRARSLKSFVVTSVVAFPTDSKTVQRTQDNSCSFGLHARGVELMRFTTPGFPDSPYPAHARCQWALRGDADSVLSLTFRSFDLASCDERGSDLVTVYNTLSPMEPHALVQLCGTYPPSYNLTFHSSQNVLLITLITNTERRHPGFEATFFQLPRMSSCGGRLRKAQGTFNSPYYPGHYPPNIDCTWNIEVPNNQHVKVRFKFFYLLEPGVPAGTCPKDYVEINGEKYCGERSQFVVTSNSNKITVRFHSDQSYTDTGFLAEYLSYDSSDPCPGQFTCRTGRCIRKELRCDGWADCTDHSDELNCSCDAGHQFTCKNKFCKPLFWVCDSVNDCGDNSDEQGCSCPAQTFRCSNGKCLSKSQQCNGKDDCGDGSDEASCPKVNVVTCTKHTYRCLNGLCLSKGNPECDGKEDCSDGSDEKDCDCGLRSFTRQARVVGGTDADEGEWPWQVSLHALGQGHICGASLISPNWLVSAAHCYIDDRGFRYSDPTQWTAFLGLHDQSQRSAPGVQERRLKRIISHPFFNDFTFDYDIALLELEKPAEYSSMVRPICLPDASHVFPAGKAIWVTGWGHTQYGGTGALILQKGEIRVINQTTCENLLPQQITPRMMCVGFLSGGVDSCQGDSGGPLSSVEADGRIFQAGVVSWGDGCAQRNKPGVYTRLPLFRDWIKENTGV
Sequence of prostasin (Q16651 33-343): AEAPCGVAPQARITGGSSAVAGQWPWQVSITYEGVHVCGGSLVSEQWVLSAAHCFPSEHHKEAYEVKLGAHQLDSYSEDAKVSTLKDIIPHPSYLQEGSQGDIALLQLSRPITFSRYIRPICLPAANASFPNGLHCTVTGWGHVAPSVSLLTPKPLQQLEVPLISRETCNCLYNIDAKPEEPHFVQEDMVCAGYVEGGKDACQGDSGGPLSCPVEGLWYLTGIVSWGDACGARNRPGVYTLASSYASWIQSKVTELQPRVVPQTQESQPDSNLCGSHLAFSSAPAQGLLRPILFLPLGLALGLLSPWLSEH

| Sequence | stability in SP containing protease inhibitor (PI) cocktail [1] | time to complete degradation [1] [h] | time to partial degradation [1] [h] | cleavage products by MS after incubation with prostasin [2, 12] | degradation by prostasin ([2]; PAP^286 54 µM, prostasin 1 µM in PBS, 300 rpm, 24 h, 37°C, Tricine-SDS gel, silver stain) | cleavage products by MS after incubation with trypsin [3, 12] | degradation by trypsin (positive control) ([3]; PAP^286 54 µM, trypsin 1 µM in PBS, 300 rpm, 24 h, 37°C, Tricine-SDS gel, silver stain) | cleavage products by MS after incubation with PSA [4, 12] | degradation by PSA ([4]; PAP^286 54 µM (250 µg/ml), PSA 1 µM in PBS, 300 rpm, 24 h, 37°C, Tricine-SDS gel, silver stain) | PSA concentration giving complete degradation ([4]; PAP^286 54 µM, PSA 1.5 µM–[…], 300 rpm, 24 h, 37°C, Tricine-SDS gel, silver stain) [µM] | cleavage products by MS after incubation with matriptase [5, 12] | degradation by matriptase ([5]; PAP^286 54 µM, matriptase 1 µM in PBS, 300 rpm, 24 h, 37°C, Tricine-SDS gel, silver stain) | metabolic activity of cells (MTT) [6] | cytotoxicity (trypan blue) [7] | cytotoxicity (trypan blue) [8] | cytotoxicity (trypan blue) [9] | not cleaved [10] | fragment found [11] |
| --- | --- | --- | --- | --- | --- | --- | --- | --- | --- | --- | --- | --- | --- | --- | --- | --- | --- | --- |
| GIHKQKEKSRLQGGVLVNEILNHMKRATQIPSYKKLIMY [PAP^286] | preservation | ≤ 3 | ≤ 1 | detectable cleavage products | did not effectively degrade | detectable cleavage products | completely degraded the peptide, with no cleavage products visualized | detectable cleavage products | degradation of the PAP peptide with visible cleavage products | 0.75 | detectable cleavage products | degradation of the PAP peptide with visible cleavage products |  |  |  |  |  |  |
| GIHKQKEKSRLQGGVLVNE [PAP^266] | preservation | ≤ 3 | ≤ 1 |  |  |  |  |  |  |  |  |  | no significant adverse effects to metabolic activity | No appreciable cytotoxicity | No appreciable cytotoxicity | lack of cytotoxicity |  |  |
| GIHKQKEKSRLQGGVLVNEILNHMKRATQIPSYKKLIMY |  |  |  |  |  |  |  |  |  |  |  |  |  |  |  |  | preservation of the PAP peptides over time | SRLQGGVLVNEILNHMKR; also recorded: ATQIPSYK; also recorded: LQGGVLV; also recorded: RATQIPS; also recorded: ATQIPS; also recorded: LQGGVL; also recorded: LQGGV |
